According to ChEMBL document CHEMBL1697821, “Development of a phospholipidosis database and predictive quantitative structure-activity relationship (QSAR) models” (Toxicol Mech Methods, 2008):

Test system: Phospholipidosis
Experiment: Literature-mined public compounds from Kruhlak et al phospholipidosis modelling dataset

SMILES	Phospholipidosis
CC[C@H]1OC(=O)[C@H](C)[C@@H](O[C@H]2C[C@@](C)(OC)[C@@H](O)[C@H](C)O2)[C@H](C)[C@@H](O[C@@H]2O[C@H](C)C[C@H](N(C)C)[C@H]2O)[C@](C)(OC)C[C@@H](C)C(=O)[C@H](C)[C@@H](O)[C@]1(C)O [CLARITHROMYCIN]	Negative: confirmed by electron microscopy
O=C(O)[C@H]1/C(=C/CO)O[C@@H]2CC(=O)N21 [CLAVULANIC ACID]	Negative: based on the absence of positive reported data from WMDD
CCC[C@@H]1C[C@@H](C(=O)N[C@@H]([C@H]2O[C@H](SC)[C@H](O)[C@@H](O)[C@H]2O)[C@H](C)Cl)N(C)C1 [CLINDAMYCIN]	Positive: strong inducer confirmed by electron microscopy
Oc1c(I)cc(Cl)c2cccnc12 [CLIOQUINOL]	Negative: based on the absence of positive reported data from WMDD
CC(CN(C)C)C(C)(O)Cc1ccc(Cl)cc1 (stereo unspecified) [CLOBUTINOL]	Negative: based on the absence of positive reported data from WMDD
CC1(C)N=C(N)N=C(N)N1OCc1ccc(Cl)c(Cl)c1 [CLOCIGUANIL]	Positive: weak inducer based on presence of foamy macrophages and cytoplasmic vacuolations
CC(C)/N=c1\cc2n(-c3ccc(Cl)cc3)c3ccccc3nc-2cc1Nc1ccc(Cl)cc1 [CLOFAZIMINE]	Negative: based on the absence of positive reported data from WMDD
CN(C)C(=O)CCCOC(=O)C(C)(C)Oc1ccc(Cl)cc1 [CLOFIBRIDE]	Negative: based on the absence of positive reported data from WMDD
CCOC(=O)NC(C)(C)Cc1ccc(Cl)cc1 [CLOFOREX]	Negative: confirmed by electron microscopy
N#Cc1ccc(NC(=O)N=C(N)N)cc1Cl [CLOGUANAMIL]	Positive: weak inducer based on presence of foamy macrophages and cytoplasmic vacuolations
CN(C)CCCC1c2ccccc2Nc2ccc(Cl)cc21 (stereo unspecified) [CLOMACRAN]	Positive: strong inducer confirmed by electron microscopy
CN(C)CCCN1c2ccccc2CCc2ccc(Cl)cc21 [CLOMIPRAMINE]	Positive: strong inducer confirmed by electron microscopy
Clc1cccc(Cl)c1N=C1NCCN1 [CLONIDINE]	Negative: based on the absence of positive reported data from WMDD
C[C@]12C=CC(=O)C=C1C(Cl)=C[C@@H]1[C@@H]2[C@@H](O)C[C@@]2(C)[C@H]1CC[C@]2(O)C(=O)CO [CLOPREDNOL]	Negative: based on the absence of positive reported data from WMDD
CC(C)(N)Cc1ccccc1Cl [CLORTERMINE]	Negative: based on the absence of positive reported data from WMDD
CN1CCN(C2=Nc3ccccc3Sc3ccc(Cl)cc32)CC1 [CLOTHIAPINE]	Negative: based on the absence of positive reported data from WMDD
CN1CCN(C2=Nc3cc(Cl)ccc3Nc3ccccc32)CC1 [CLOZAPINE]	Positive: strong inducer confirmed by electron microscopy
CCC(c1ccc(OCCN(CC)CC)cc1)C(CC)c1ccc(OCCN(CC)CC)cc1 (stereo unspecified) [CORALGIL]	Positive: strong inducer confirmed by electron microscopy
CC1CC(OC(=O)C(O)c2ccccc2)CC(C)(C)C1 (stereo unspecified) [CYCLANDELATE]	Negative: based on the absence of positive reported data from WMDD

SMILES	Phospholipidosis
C[C@H]1[C@H]2Cc3ccc(O)cc3[C@]1(C)CCN2CC1CC1 [CYCLAZOCINE]	Negative: based on the absence of positive reported data from WMDD
CN1CCN(C(c2ccccc2)c2ccccc2)CC1 [CYCLIZINE]	Positive: strong inducer confirmed by electron microscopy
CCC1(C2=CCCCC2)C(=O)NC(=O)NC1=O [CYCLOBARBITAL]	Negative: based on the absence of positive reported data from WMDD
CC(=O)Oc1ccc(C(=C2CCCCC2)c2ccc(OC(C)=O)cc2)cc1 [CYCLOFENIL]	Negative: based on the absence of positive reported data from WMDD
CC(=O)[C@@]1(O)CC[C@H]2[C@@H]3C=C(Cl)C4=CC(=O)[C@@H]5C[C@@H]5[C@]4(C)[C@H]3CC[C@@]21C [CYPROTERONE]	Negative: based on the absence of positive reported data from WMDD
NCCS [CYSTEAMINE]	Negative: based on the absence of positive reported data from WMDD
Nc1ccn([C@@H]2O[C@H](CO)[C@@H](O)[C@@H]2O)c(=O)n1 [CYTARABINE]	Negative: based on the absence of positive reported data from WMDD
CN(C)/N=N/c1[nH]cnc1C(N)=O [DACARBAZINE]	Negative: based on the absence of positive reported data from WMDD
CC(C)(N)CO [DEANOL]	Negative: based on the absence of positive reported data from WMDD
N=C(N)N1CCc2ccccc2C1 [DEBRISOQUIN]	Negative: based on the absence of positive reported data from WMDD
C[N+](C)(C)CCCCCCCCCC[N+](C)(C)C.[Br-].[Br-] [DECAMETHONIUM BROMIDE]	Negative: based on the absence of positive reported data from WMDD
CC(=O)O[C@H]1CC[C@@]2(C)C(=CC[C@@H]3[C@@H]2CC[C@]2(C)C(=O)CC[C@@H]32)C1 [DEHYDROEPIANDROSTERONE ACETATE]	Negative: based on the absence of positive reported data from WMDD
CC(C)Nc1cccnc1N1CCN(C(=O)c2cc3cc(NS(C)(=O)=O)ccc3[nH]2)CC1 [DELAVIRDINE]	Negative: based on the absence of positive reported data from WMDD
CNCCCN1c2ccccc2CCc2ccccc21 [DESIPRAMINE]	Positive: weak inducer based on presence of foamy macrophages and cytoplasmic vacuolations
CC(=O)OCC(=O)[C@H]1CC[C@H]2[C@@H]3CCC4=CC(=O)CC[C@]4(C)[C@H]3CC[C@]12C [DESOXYCORTICOSTERONE ACETATE]	Negative: based on the absence of positive reported data from WMDD
CN1C(=O)CN=C(c2ccccc2)c2cc(Cl)ccc21 [DIAZEPAM]	Negative: confirmed by electron microscopy
NC[C@@H]1CC[C@@H](N)[C@@H](O[C@H]2[C@H](O)[C@@H](O[C@H]3O[C@H](CO)[C@@H](O)[C@H](N)[C@H]3O)[C@H](N)C[C@@H]2N)O1 [DIBEKACIN]	Positive: strong inducer confirmed by electron microscopy
Cc1cc(=O)n(-c2ccccc2)n1C.OC(O)C(Cl)(Cl)Cl.OC(O)C(Cl)(Cl)Cl [DICHLORALPHENAZONE]	Negative: based on the absence of positive reported data from WMDD
NS(=O)(=O)c1cc(Cl)c(Cl)c(S(N)(=O)=O)c1 [DICHLORPHENAMIDE]	Negative: based on the absence of positive reported data from WMDD

SMILES	Phospholipidosis
C[C@H]1O[C@@H](O[C@H]2[C@@H](O)C[C@H](O[C@H]3[C@@H](O)C[C@H](O[C@H]4CC[C@@]5(C)[C@H](CC[C@@H]6[C@@H]5C[C@@H](O)[C@]5(C)[C@@H](C7=CC(=O)OC7)CC[C@]65O)C4)O[C@@H]3C)O[C@@H]2C)C[C@H](O)[C@@H]1O [DIGOXIN]	Negative: based on the absence of positive reported data from WMDD
NNc1nnc(NN)c2ccccc12 [DIHYDRALAZINE]	Negative: based on the absence of positive reported data from WMDD
CN(C)CCCN1c2ccccc2C(C)(C)c2ccccc21 [DIMETACRINE]	Negative: based on the absence of positive reported data from WMDD
CCCCC[C@H](O)/C=C/[C@@H]1[C@@H](C/C=C\CCCC(=O)O)[C@@H](O)C[C@H]1O [DINOPROST]	Negative: based on the absence of positive reported data from WMDD
OC(CCCN1CCCCC1)(c1ccccc1)c1ccccc1 [DIPHENIDOL]	Negative: based on the absence of positive reported data from WMDD
CC(C)N(CCC(CCN1CCCCC1)(C(N)=O)c1ccccc1Cl)C(C)C (stereo unspecified) [DISOBUTAMIDE]	Positive: strong inducer confirmed by electron microscopy
CC(C)N(CCC(C(N)=O)(c1ccccc1)c1ccccn1)C(C)C (stereo unspecified) [DISOPYRAMIDE]	Negative: based on the absence of positive reported data from WMDD
CCN(CC)C(=S)S [DITIOCARB]	Negative: based on the absence of positive reported data from WMDD
COc1cc(CC2c3c(cc(OC)c(OC)c3OC)CC[N+]2(C)CCCOC(=O)CCC(=O)OCCC[N+]2(C)CCc3cc(OC)c(OC)c(OC)c3C2Cc2cc(OC)c(OC)c(OC)c2)cc(OC)c1OC.[Cl-].[Cl-] (stereo unspecified) [DOXACURIUM CHLORIDE]	Negative: based on the absence of positive reported data from WMDD
Cn1c(=O)c2c(ncn2CC2OCCO2)n(C)c1=O [DOXOFYLLINE]	Negative: based on the absence of positive reported data from WMDD
COc1cccc2c1C(=O)c1c(O)c3c(c(O)c1C2=O)C[C@@](O)(C(=O)CO)C[C@@H]3O[C@H]1C[C@H](N)[C@H](O)[C@H](C)O1 [DOXORUBICIN]	Negative: confirmed by electron microscopy
CN(C)CCOC(C)(c1ccccc1)c1ccccn1 (stereo unspecified) [DOXYLAMINE]	Negative: based on the absence of positive reported data from WMDD
CCC(=O)O[C@H]1CC[C@H]2[C@@H]3CC[C@H]4CC(=O)[C@H](C)C[C@]4(C)[C@H]3CC[C@]12C [DROMOSTANOLONE PROPIONATE]	Negative: based on the absence of positive reported data from WMDD
Cn1c(=O)c2c(ncn2CC(O)CO)n(C)c1=O (stereo unspecified) [DYPHYLLINE]	Negative: based on the absence of positive reported data from WMDD
CC[C@H]1CN2CCc3cc(OC)c(OC)cc3[C@@H]2C[C@@H]1C[C@H]1NCCc2cc(OC)c(OC)cc21 [EMETINE]	Positive: weak inducer based on presence of foamy macrophages and cytoplasmic vacuolations
CN[C@@H](C)[C@H](O)c1ccccc1 [EPHEDRINE]	Negative: based on the absence of positive reported data from WMDD
CNC[C@H](O)c1ccc(O)c(O)c1 [EPINEPHRINE]	Negative: based on the absence of positive reported data from WMDD
COc1cccc2c1C(=O)c1c(O)c3c(c(O)c1C2=O)C[C@@](O)(C(=O)CO)C[C@@H]3O[C@H]1C[C@H](N)[C@@H](O)[C@H](C)O1 [EPIRUBICIN]	Negative: based on the absence of positive reported data from WMDD
